{
  "source": "patent US20210154190A1",
  "about": "“SHP2 INHIBITOR COMPOSITIONS AND METHODS FOR TREATING CANCER” (Revolution Medicines, Inc., priority 2018, published 2021)",
  "assay_type_in_all_cases": "biochemical",
  "key": {"[1]": {"molecular_target": "T1, human SHP2-FL E76K (Homo sapiens, UniProt Q06124, E76K)", "T1 sequence (Q06124 1-593 E76K)": "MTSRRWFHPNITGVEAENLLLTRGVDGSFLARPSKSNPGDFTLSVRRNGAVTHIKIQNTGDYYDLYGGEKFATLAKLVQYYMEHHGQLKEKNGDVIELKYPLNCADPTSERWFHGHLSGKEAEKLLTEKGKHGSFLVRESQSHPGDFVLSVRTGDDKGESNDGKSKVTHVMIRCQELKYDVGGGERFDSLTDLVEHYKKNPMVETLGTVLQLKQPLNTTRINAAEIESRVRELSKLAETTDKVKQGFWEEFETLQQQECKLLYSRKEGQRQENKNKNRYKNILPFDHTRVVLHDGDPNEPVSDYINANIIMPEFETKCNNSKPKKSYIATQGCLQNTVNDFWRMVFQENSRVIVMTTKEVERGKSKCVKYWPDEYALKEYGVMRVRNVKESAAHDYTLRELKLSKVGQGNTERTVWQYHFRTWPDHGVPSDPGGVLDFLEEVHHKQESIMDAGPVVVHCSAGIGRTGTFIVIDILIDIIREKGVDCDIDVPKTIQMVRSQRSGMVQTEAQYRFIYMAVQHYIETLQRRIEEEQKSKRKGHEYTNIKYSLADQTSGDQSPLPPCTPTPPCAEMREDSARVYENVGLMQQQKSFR", "test": "SHP2 allosteric inhibition assay (DiFMUP), E76K", "details": "for IC50: SHP2 E76K", "excerpt": "(§1) Full-length SHP2 is allosterically activated through binding of bis-tyrosyl-phorphorylated peptides to its Src Homology 2 (SH2) domains. The latter activation step leads to the release of the auto-inhibitory interface of SHP2, which in turn renders the SHP2 protein tyrosine phosphatase (PTP) active and available for substrate recognition and reaction catalysis. The catalytic activity of SHP2 was monitored using the surrogate substrate DiFMUP in a prompt fluorescence assay format.\n(§2) Diluted inhibitor (5 μL) was mixed with activated enzyme (25 μl) and incubated for 30 minutes at room temperature. […] 50 μl stop solution (0.1 mM sodium pervanadate) was added to each well, the plate was shaken briefly to mix, and read in endpoint mode on a SpectraMax M5 plate reader (Molecular Devices) using excitation and emission wavelengths of 340 nm and 450 nm. Data was imported into GraphPad Prism. Plots of fluorescence intensity vs. log Molar [compound] were created and modeled with a 3-parameter sigmoidal concentration response equation in order to estimate IC50.\n(§3) Reactions were then allowed to proceed for 30 minutes and stopped by the addition of a phosphatase inhibitor, sodium pervanadate. De-phosphorylation of DiFMUP results in production of a fluorescent product. Product fluorescence was determined and plotted as a function of compound concentration in order to determine the IC50 for each compound on each mutant using a four parameter sigmoidal dose response function in Prism (GraphPad).\n(§4) NsCs mimics the role of the cytosolic domain of a protein tyrosine kinase in this model system."}, "[2]": {"molecular_target": "T2, human SHP2-FL S189A (Homo sapiens, UniProt Q06124, S189A)", "T2 sequence (Q06124 1-593 S189A)": "T1 sequence (Q06124 1-593 E76K) with K76E, S189A", "test": "SHP2 allosteric inhibition assay (DiFMUP), S189A", "experimental": "as §1\nas §2, with “Diluted inhibitor (5 μL) was mixed with activated enzyme (25 μl) and incubated for 30 minutes at room temperature.” left out\nas §3, §4"}, "[3]": {"molecular_target": "T3, human SHP2-FL P491S (Homo sapiens, UniProt Q06124, P491S)", "T3 sequence (Q06124 1-593 P491S)": "T1 sequence (Q06124 1-593 E76K) with K76E, P491S", "test": "SHP2 allosteric inhibition assay (DiFMUP), P491S", "experimental": "as §1\nas §2, with “Diluted inhibitor (5 μL) was mixed with activated enzyme (25 μl) and incubated for 30 minutes at room temperature.” left out\nas §3, §4"}},
  "note": "Positions count from the first letter of the chain named. Where “and” joins values, the source holds several entries; their conditions need not be identical. Equal values may be shown once. Read-outs that look alike come from different tables or passages of the source.",
  "data": [
    {"molecule": "Nc1nc(N2CCC3(CCC[C@H]3N)CC2)cnc1Sc1ccnc(Cl)c1Cl", "note": "[Compound 1]", "values": [
      {"measurement": "IC50", "setting": "[1]; 0.5 μM NsCs peptide (Activated), read-out: IC50", "value": "> 10000 nM and 13100 nM and 10400 nM"},
      {"measurement": "IC50", "setting": "[1]; No Peptide Control (Non-Activated), read-out: pIC50 (converted)", "value": "53.7 nM and 58.9 nM and 50.1 nM"},
      {"measurement": "IC50", "setting": "[2]; IC50 (nM), SHP2 S189A 0.5 μM NsCs peptide (Activated), human SHP2-FL S189A, 0.5 μM NsCs peptide (activated)", "value": "3.38 nM and 3.76 nM and 2.99 nM and 3.79 nM"},
      {"measurement": "IC50", "setting": "[2]; human SHP2-FL S189A alone, no peptide (non-activated), read-out: IC50 (nM), SHP2 S189A No Peptide Control (Non-Activated)", "value": "3.01 nM and 3.35 nM and 2.75 nM and 3.11 nM"},
      {"measurement": "IC50", "setting": "[2]; human SHP2-FL S189A alone, no peptide (non-activated), read-out: pIC50, SHP2 S189A No Peptide Control (Non-Activated) (converted)", "value": "3.02 nM and 3.31 nM and 2.75 nM and 3.09 nM"},
      {"measurement": "IC50", "setting": "[2]; pIC50, SHP2 S189A 0.5 μM NsCs peptide (Activated), human SHP2-FL S189A, 0.5 μM NsCs peptide (activated)", "value": "3.39 nM and 3.72 nM and 3.02 nM and 3.8 nM"},
      {"measurement": "IC50", "setting": "[3]; IC50 (nM), SHP2 P491S 0.5 μM NsCs peptide (Activated), human SHP2-FL P491S, 0.5 μM NsCs peptide (activated)", "value": "> 10000 nM and 10600 nM and 7670 nM"},
      {"measurement": "IC50", "setting": "[3]; human SHP2-FL P491S alone, no peptide (non-activated), read-out: IC50 (nM), SHP2 P491S No Peptide Control (Non-Activated)", "value": "258 nM and 274 nM and 253 nM and 282 nM"},
      {"measurement": "IC50", "setting": "[3]; human SHP2-FL P491S alone, no peptide (non-activated), read-out: pIC50, SHP2 P491S No Peptide Control (Non-Activated) (converted)", "value": "257 nM and 275 nM and 251 nM and 282 nM"},
      {"measurement": "IC50", "setting": "[3]; pIC50, SHP2 P491S 0.5 μM NsCs peptide (Activated), human SHP2-FL P491S, 0.5 μM NsCs peptide (activated)", "value": "> 10000 nM and 10700 nM and 7590 nM"}
    ]},
    {"molecule": "Cc1nc(N2CCC3(CC2)CO[C@@H](C)[C@H]3N)c(CO)nc1-c1cccc(Cl)c1Cl", "note": "[Compound B]", "values": [
      {"measurement": "Biochemical sensitivity", "setting": "[1]; Variant E76K", "value": "no (Sensitive if IC50 < 2000 nM)"},
      {"measurement": "Biochemical sensitivity", "setting": "[2]; Variant S189A", "value": "yes (Sensitive if IC50 < 2000 nM)"},
      {"measurement": "Biochemical sensitivity", "setting": "[3]; Variant P491S", "value": "no (Sensitive if IC50 < 2000 nM)"}
    ]}
  ]
}
